Assay results: article PMC5489263 (Science Advances, 2017)
Ends that are not written are not given here.

Legend:
Le.Ste2 mating receptor = Le.Ste2 mating receptor (Lodderomyces elongisporus, UniProt A5E1D9); experiment: cell-based
[1] = molecular target: C. glabrata mating receptor (Cg.Ste2) (Candida glabrata, UniProt Q6FLY8); experiment: cell-based
Sequence of C. glabrata mating receptor (Cg.Ste2) (Q6FLY8 entry or part of it): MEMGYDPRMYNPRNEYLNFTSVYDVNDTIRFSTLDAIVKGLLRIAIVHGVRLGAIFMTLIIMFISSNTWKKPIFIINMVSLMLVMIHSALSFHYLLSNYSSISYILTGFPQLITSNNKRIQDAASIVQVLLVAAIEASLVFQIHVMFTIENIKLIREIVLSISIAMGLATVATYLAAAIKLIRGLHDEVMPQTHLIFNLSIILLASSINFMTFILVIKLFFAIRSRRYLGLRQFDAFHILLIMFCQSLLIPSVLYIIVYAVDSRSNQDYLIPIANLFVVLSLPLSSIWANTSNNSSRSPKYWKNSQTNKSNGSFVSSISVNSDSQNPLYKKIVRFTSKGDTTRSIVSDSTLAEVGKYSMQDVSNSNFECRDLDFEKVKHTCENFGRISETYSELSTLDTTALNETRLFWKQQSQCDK

Sequence of Le.Ste2 mating receptor (A5E1D9 entry or part of it): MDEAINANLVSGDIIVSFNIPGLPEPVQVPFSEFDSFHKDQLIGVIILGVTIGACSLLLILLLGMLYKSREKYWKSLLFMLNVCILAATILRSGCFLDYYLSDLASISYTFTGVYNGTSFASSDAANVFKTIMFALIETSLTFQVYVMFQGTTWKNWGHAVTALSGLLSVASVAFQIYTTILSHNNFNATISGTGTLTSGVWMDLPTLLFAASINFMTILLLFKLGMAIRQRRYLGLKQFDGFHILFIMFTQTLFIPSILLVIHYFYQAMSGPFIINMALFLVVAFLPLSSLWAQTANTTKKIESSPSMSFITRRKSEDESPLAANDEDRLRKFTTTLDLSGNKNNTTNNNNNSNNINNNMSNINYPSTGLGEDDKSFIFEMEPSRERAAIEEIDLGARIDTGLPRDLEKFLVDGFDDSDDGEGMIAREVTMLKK

WMWTRYGRFSPV [Le – Lodderomyces elongisporus]
EC50 (Le.Ste2 mating receptor): 0.054 µM

WHWVRLRKGQGLF [Cg – Candida glabrata]
EC50 [1]: 14 µM
